From patent publication US5919668A, “Non-reducing saccharide and its production and use” (Kabushiki Kaisha Hayashibara Seibutsu Kagaku Kenkyujo, priority 1994, dated 1999)

Biological target: T1, trehalose-releasing enzyme (Rhizobium sp. M-11, UniProt Q53238)
T1 construct: M-11, about 58-68 kDa
T1 sequence (Q53238 1-596): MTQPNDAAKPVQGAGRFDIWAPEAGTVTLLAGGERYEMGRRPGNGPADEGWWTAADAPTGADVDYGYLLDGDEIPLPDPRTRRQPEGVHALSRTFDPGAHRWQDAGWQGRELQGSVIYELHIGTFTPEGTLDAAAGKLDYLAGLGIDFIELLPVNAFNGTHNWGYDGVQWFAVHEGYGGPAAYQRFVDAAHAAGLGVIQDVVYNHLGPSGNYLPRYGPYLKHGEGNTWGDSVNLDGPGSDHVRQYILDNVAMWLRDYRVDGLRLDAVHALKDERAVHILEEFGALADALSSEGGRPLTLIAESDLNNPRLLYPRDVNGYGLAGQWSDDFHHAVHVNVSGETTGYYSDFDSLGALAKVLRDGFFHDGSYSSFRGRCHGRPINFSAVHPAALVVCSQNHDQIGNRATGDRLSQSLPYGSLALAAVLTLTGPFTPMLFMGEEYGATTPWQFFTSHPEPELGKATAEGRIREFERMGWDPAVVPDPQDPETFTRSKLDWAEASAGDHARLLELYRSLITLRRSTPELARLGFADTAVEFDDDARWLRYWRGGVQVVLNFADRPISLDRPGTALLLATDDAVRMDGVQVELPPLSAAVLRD
Format: biochemical, Rhizobium species M-11
Settings: for Composition: trehalose formed / Composition: reducing saccharide formed: 20% substrate, 2 units/g, 40° C., pH7.0, 48 hours; for Composition: reducing saccharide formed: glucose, maltose, maltotriose, maltotetraose or maltopentaose respectively; for Composition: residual substrate: trehalose-releasing enzyme, 48 h, pH 7
Procedure: Alpha-glycosyl trehaloses as substrates were prepared in accordance with the method described in Japanese Patent Application No. 349,216/93. More particularly, 20% aqueous solutions of maltotriose, maltotetraose, maltopentaose, maltohexaose or maltoheptaose as reducing partial starch hydrolysate were added with 2 units/g substrate solid of a purified non-reducing saccharide-forming enzyme obtained by the method in […], reacted at 40° C. and pH7.0 for 48 hours, heated for inactivation, filtered, deionized, concentrated in conventional manner and applied to ion exchange column chromatography on a strongly-acidic cation exchange "XT-1016" in sodium form. The ion exchange resin was packed in 3 jacketed-stainless steel columns, inner diameter of 2.0 cm, length of 1 m, and the columns were cascaded, loaded with 5 v/v % reaction saccharide liquid against the resin and injected with 55° C. water at SV0.13 for fractionation while keeping the temperature inside the columns at 55° C., thus obtaining high-purity preparations of non-reducing saccharides with glucose polymerization degrees of 3 or higher.
20% Aqueous solutions of these five types of non-reducing saccharides or alpha-glycosyl trehaloses were prepared, added with 2 units/g substrate solid of the purified trehalose-releasing enzyme obtained in Experiment 15, reacted at 40° C. and pH7.0 for 48 hours, deionized and subjected to high-performance liquid chromatography on "WAKO BEADS WB-T-330" for analysis of reaction products. As control, maltotriose, maltotetraose, maltopentaose, maltohexaose and maltoheptaose were subjected to the purified trehalose-releasing enzyme similarly as above and then analyzed on high-performance liquid chromatography.

SMILES	Composition: trehalose formed [%]	Composition: reducing saccharide formed [%]	Composition: residual substrate [%]
OC[C@H]1O[C@H](O[C@H]2O[C@H](CO)[C@@H](O[C@H]3O[C@H](CO)[C@@H](O)[C@H](O)[C@H]3O)[C@H](O)[C@H]2O)[C@H](O)[C@@H](O)[C@@H]1O [PI, alpha-glucosyl trehalose]	17.5	6.5	76.0
OC[C@H]1O[C@H](O[C@H]2O[C@H](CO)[C@@H](O[C@H]3O[C@H](CO)[C@@H](O[C@H]4O[C@H](CO)[C@@H](O)[C@H](O)[C@H]4O)[C@H](O)[C@H]3O)[C@H](O)[C@H]2O)[C@H](O)[C@@H](O)[C@@H]1O [PII, alpha-maltosyl trehalose]	44.3	44.4	11.3
OC[C@H]1O[C@H](O[C@H]2O[C@H](CO)[C@@H](O[C@H]3O[C@H](CO)[C@@H](O[C@H]4O[C@H](CO)[C@@H](O[C@H]5O[C@H](CO)[C@@H](O)[C@H](O)[C@H]5O)[C@H](O)[C@H]4O)[C@H](O)[C@H]3O)[C@H](O)[C@H]2O)[C@H](O)[C@@H](O)[C@@H]1O [PIII, alpha-maltotriosyl trehalose]	39.5	60.0	0.5
OC[C@H]1O[C@H](O[C@H]2O[C@H](CO)[C@@H](O[C@H]3O[C@H](CO)[C@@H](O[C@H]4O[C@H](CO)[C@@H](O[C@H]5O[C@H](CO)[C@@H](O[C@H]6O[C@H](CO)[C@@H](O)[C@H](O)[C@H]6O)[C@H](O)[C@H]5O)[C@H](O)[C@H]4O)[C@H](O)[C@H]3O)[C@H](O)[C@H]2O)[C@H](O)[C@@H](O)[C@@H]1O [PIV, alpha-maltotetraosyl trehalose]	34.2	65.5	0.3
OC[C@H]1O[C@H](O[C@H]2O[C@H](CO)[C@@H](O[C@H]3O[C@H](CO)[C@@H](O[C@H]4O[C@H](CO)[C@@H](O[C@H]5O[C@H](CO)[C@@H](O[C@H]6O[C@H](CO)[C@@H](O[C@H]7O[C@H](CO)[C@@H](O)[C@H](O)[C@H]7O)[C@H](O)[C@H]6O)[C@H](O)[C@H]5O)[C@H](O)[C@H]4O)[C@H](O)[C@H]3O)[C@H](O)[C@H]2O)[C@H](O)[C@@H](O)[C@@H]1O [PV, alpha-maltopentaosyl trehalose]	29.1	70.6	0.3
